Source: ChEMBL document CHEMBL4414629, “Macroline-Sarpagine Bisindole Alkaloids with Antiproliferative Activity from Alstonia penangiana” (J Nat Prod, 2019)

Legend:
[1] = Antiproliferative activity against human KB/S cells assessed as reduction in cell growth after 72 hrs by MTT assay; format: functional, cell-based
KB/VJ300 [2] = test: Antiproliferative activity against human KB/VJ300 cells assessed as reduction in cell growth after 72 hrs by MTT assay; format: functional, cell-based; conditions: KB/VJ300, 72 h
PC-3 = test: Antiproliferative activity against human PC3 cells assessed as reduction in cell growth after 72 hrs by MTT assay; format: functional, cell-based; conditions: PC-3, 72 h
MCF7 = test: Antiproliferative activity against human MCF7 cells assessed as reduction in cell growth after 72 hrs by MTT assay; format: functional, cell-based; conditions: MCF7, 72 h
MDA-MB-231 = test: Antiproliferative activity against human MDA-MB-231 cells assessed as reduction in cell growth after 72 hrs by MTT assay; format: functional, cell-based; conditions: MDA-MB-231, 72 h
HT-29 = test: Antiproliferative activity against human HT-29 cells assessed as reduction in cell growth after 72 hrs by MTT assay; format: functional, cell-based; conditions: HT-29, 72 h
HCT-116 = test: Antiproliferative activity against human HCT116 cells assessed as reduction in cell growth after 72 hrs by MTT assay; format: functional, cell-based; conditions: HCT-116, 72 h
A549 = test: Antiproliferative activity against human A549 cells assessed as reduction in cell growth after 72 hrs by MTT assay; format: functional, cell-based; conditions: A549, 72 h
CCD-18Co = test: Cytotoxicity against human CCD-18Co cells assessed as reduction in cell growth after 72 hrs by MTT assay; format: cell-based
KB/VJ300 [3] = test: Antiproliferative activity against human vincristine-rsistant KB/VJ300 cells assessed as reduction in cell growth after 72 hrs by MTT assay; format: functional, cell-based; conditions: KB/VJ300, 72 h
LNCaP = test: Antiproliferative activity against human LNCAP cells assessed as reduction in cell growth after 72 hrs by MTT assay; format: functional, cell-based
MRC5 = test: Cytotoxicity against human MRC5 cells assessed as reduction in cell growth after 72 hrs by MTT assay; format: cell-based; conditions: MRC5, 72 h

Row | Structure (SMILES) | IC50 [1] | IC50 (KB/VJ300 [2]) | IC50 (PC-3) | IC50 (MCF7) | IC50 (MDA-MB-231) | IC50 (HT-29) | IC50 (HCT-116) | IC50 (A549) | IC50 (CCD-18Co) | IC50 (KB/VJ300 [3]) | IC50 (LNCaP) | IC50 (MRC5)
1 | C/C=C1/CN2[C@H]3C[C@@H]1[C@@H](CO)[C@@H]2Cc1c3n(C)c2cc(C[C@H]3[C@@H]4C[C@H]5c6c(c7ccccc7n6C)C[C@@H]([C@@H]4CO[C@]3(C)OC)N5C)c(OC)cc12 | 2.4 µM | 2.9 µM | 3.1 µM | 1.3 µM | 1.4 µM | 0.03 µM | 2.9 µM | 6.8 µM | 4.3 µM | – | – | –
2 | C/C=C1/CN2[C@H]3C[C@@H]1[C@@H](CO)[C@@H]2Cc1c3n(C)c2cc(C(C)C3=COC[C@@H]4[C@H]3C[C@H]3c5c(c6ccccc6n5C)C[C@@H]4N3C)c(OC)cc12 (stereo partly drawn) | 0.6 µM | 6.7 µM | 8.2 µM | 4.5 µM | 4.5 µM | 0.3 µM | > 10 µM | 7 µM | – | 0.2 µM | 6.2 µM | 7.9 µM
3 | C/C=C1/CN2[C@H]3C[C@@H]1[C@@H](CO)[C@@H]2Cc1c3n(C)c2ccc(OC)c(CC3=C(C)OC[C@@H]4[C@H]3C[C@H]3c5c(c6ccccc6n5C)C[C@@H]4N3C)c12 | 2.8 µM | 5.9 µM | 6.1 µM | 2 µM | 4.8 µM | 0.07 µM | 4.2 µM | 9 µM | 9.7 µM | – | – | –
4 | C/C=C1/CN2[C@H]3C[C@@H]1[C@@H](CO)[C@@H]2Cc1c3n(C)c2cc(C[C@@H]3[C@@H]4C[C@H]5c6c(c7ccccc7n6C)C[C@@H]([C@@H]4CO[C@]3(C)OC)N5C)c(OC)cc12 | 1.1 µM | > 10 µM | > 10 µM | 5.3 µM | 4.8 µM | 0.07 µM | > 10 µM | > 10 µM | – | 3.9 µM | 3.7 µM | > 10 µM
5 | C/C=C1/CN2[C@H]3C[C@@H]1[C@@H](CO)[C@@H]2Cc1c3n(C)c2ccc(OC)c(C[C@@H](C(C)=O)[C@@H]3C[C@H]4c5c(c6ccccc6n5C)C[C@@H]([C@@H]3CO)N4C)c12 | 2.5 µM | 5.5 µM | > 10 µM | 7.7 µM | 4.1 µM | 0.03 µM | 1.5 µM | 3.9 µM | 4.1 µM | 8.8 µM | – | –
6 | C/C=C1/CN2[C@H]3C[C@@H]1[C@@H](CO)[C@@H]2Cc1c3n(C)c2cc(C[C@@H](C(C)=O)[C@@H]3C[C@H]4c5c(c6ccccc6n5C)C[C@@H]([C@@H]3CO)N4C)c(OC)cc12 | 1.7 µM | 3.6 µM | > 10 µM | 8.5 µM | > 10 µM | 0.02 µM | 2.1 µM | 3 µM | 5.1 µM | 4.2 µM | – | –
7 | COc1ccc(CCN(C)CCCC(C#N)(c2ccc(OC)c(OC)c2)C(C)C)cc1OC (stereo not drawn) [VERAPAMIL] | – | – | – | – | – | – | – | – | – | 0.4 µM | – | –
8 | CC[C@]1(O)C[C@H]2CN(CCc3c([nH]c4ccccc34)[C@@](C(=O)OC)(c3cc4c(cc3OC)N(C=O)[C@H]3[C@@](O)(C(=O)OC)[C@H](OC(C)=O)[C@]5(CC)C=CCN6CC[C@]43[C@@H]65)C2)C1 [VINCRISTINE] | 0.0008 µM | 0.8 µM | – | – | – | – | – | – | – | – | – | –
